Data reported in the supplement of paper PMC10307832.

Legend:
Experiment in all cases: relative viability (nuclei count vs DMSO), 5 days (fraction); higher = more cells survive
[1] = test system: 201T
How it was run: (§1)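 A single step with final 0.05% Triton X-100, 1% formaldehyde and 1 ug/ml Hoechst fixed the cells and stained nuclei 5 days after treatment. Lung cancer cell lines in 1536-well plates had been treated by pin tool the day after seeding with one drug alone or a fixed anchor-drug dose plus five library-drug doses (not always all listed) in √10 steps, and nuclei were counted on 4× images. Relative viability is the ratio of nuclei in treated wells to nuclei in vehicle wells, taken as the median of duplicate plates.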

[2] = test system: BEN
How it was run: as §1

[3] = test system: EKVX
How it was run: as §1

[4] = test system: EPLC-272H
How it was run: as §1

[5] = test system: H3255
How it was run: as §1

[6] = test system: HCC-44
How it was run: as §1

[7] = test system: HCC-827
How it was run: as §1

[8] = test system: LCLC-97TM1
How it was run: as §1

[9] = test system: LOU-NH91
How it was run: as §1

[10] = test system: LU99A
How it was run: as §1

[11] = test system: NCI-H1437
How it was run: as §1

[12] = test system: NCI-H1666
How it was run: as §1

[13] = test system: NCI-H1975
How it was run: as §1

[14] = test system: NCI-H2085
How it was run: as §1

[15] = test system: NCI-H2087
How it was run: as §1

[16] = test system: NCI-H2170
How it was run: as §1

[17] = test system: NCI-H2342
How it was run: as §1

[18] = test system: NCI-H647
How it was run: as §1

[19] = test system: NCI-H650
How it was run: as §1

[20] = test system: PC-3 [JPC-3]
How it was run: as §1

[21] = test system: COR-L 105
How it was run: as §1

[22] = test system: SW 1573
How it was run: as §1

`COc1nc(C)cnc1NS(=O)(=O)c1cccnc1-c1ccc(-c2nnco2)cc1` [Zibotentan] + NC(=O)Nc1cc(-c2cccc(F)c2)sc1C(=O)N[C@H]1CCCNC1 [AZD7762] (partner 0.2 µM) was tested, and the relative viability ([1]; first compound 0.08 µM) was 0.644, the relative viability ([1]; first compound 0.253 µM) was 0.604 and the relative viability ([1]; first compound 0.8 µM) was 0.624. The relative viability ([1]; first compound 2.53 µM) was 0.569, the relative viability ([2]; first compound 0.08 µM) was 0.7 and the relative viability ([2]; first compound 0.253 µM) was 0.588. The relative viability ([2]; first compound 0.8 µM) was 0.682, the relative viability ([2]; first compound 2.53 µM) was 0.677 and the relative viability ([3]; first compound 0.08 µM) was 0.742. It also gave a relative viability ([3]; first compound 0.253 µM) of 0.648, a relative viability ([3]; first compound 0.8 µM) of 0.718 and a relative viability ([3]; first compound 2.53 µM) of 0.766. It also gave a relative viability ([4]; first compound 0.08 µM) of 0.217, a relative viability ([4]; first compound 0.253 µM) of 0.261 and a relative viability ([4]; first compound 0.8 µM) of 0.168. The relative viability ([4]; first compound 2.53 µM) was 0.259, the relative viability ([5]; first compound 0.08 µM) was 0.901 and the relative viability ([5]; first compound 0.253 µM) was 0.87. For the same compound, the relative viability ([5]; first compound 0.8 µM) was 0.825, the relative viability ([5]; first compound 2.53 µM) was 0.799 and the relative viability ([6]; first compound 0.08 µM) was 1.01. For the same compound, the relative viability ([6]; first compound 0.253 µM) was 0.962, the relative viability ([6]; first compound 0.8 µM) was 0.968 and the relative viability ([6]; first compound 2.53 µM) was 1.03. The relative viability ([7]; first compound 0.08 µM) was 0.215, the relative viability ([7]; first compound 0.253 µM) was 0.183 and the relative viability ([7]; first compound 0.8 µM) was 0.183. It also gave a relative viability ([7]; first compound 2.53 µM) of 0.223, a relative viability ([8]; first compound 0.08 µM) of 0.433 and a relative viability ([8]; first compound 0.253 µM) of 0.165. For the same compound, the relative viability ([8]; first compound 0.8 µM) was 0.12, the relative viability ([8]; first compound 2.53 µM) was 0.253 and the relative viability ([9]; first compound 0.08 µM) was 0.838. The relative viability ([9]; first compound 0.253 µM) was 0.702, the relative viability ([9]; first compound 0.8 µM) was 0.773 and the relative viability ([9]; first compound 2.53 µM) was 0.795. It also gave a relative viability ([10]; first compound 0.08 µM) of 0.425, a relative viability ([10]; first compound 0.253 µM) of 0.412 and a relative viability ([10]; first compound 0.8 µM) of 0.228. The relative viability ([10]; first compound 2.53 µM) was 0.429, the relative viability ([11]; first compound 0.08 µM) was 1.14 and the relative viability ([11]; first compound 0.253 µM) was 0.897. It also gave a relative viability ([11]; first compound 0.8 µM) of 1.05, a relative viability ([11]; first compound 2.53 µM) of 1.15 and a relative viability ([12]; first compound 0.08 µM) of 0.866. The relative viability ([12]; first compound 0.253 µM) was 0.795, the relative viability ([12]; first compound 0.8 µM) was 0.898 and the relative viability ([12]; first compound 2.53 µM) was 0.791. It also gave a relative viability ([13]; first compound 0.08 µM) of 0.767, a relative viability ([13]; first compound 0.253 µM) of 0.626 and a relative viability ([13]; first compound 0.8 µM) of 0.728. For the same compound, the relative viability ([13]; first compound 2.53 µM) was 0.659, the relative viability ([14]; first compound 0.08 µM) was 1.06 and the relative viability ([14]; first compound 0.253 µM) was 0.953. For the same compound, the relative viability ([14]; first compound 0.8 µM) was 0.826, the relative viability ([14]; first compound 2.53 µM) was 0.959 and the relative viability ([15]; first compound 0.08 µM) was 1.28. It also gave a relative viability ([15]; first compound 0.253 µM) of 1.22, a relative viability ([15]; first compound 0.8 µM) of 1.29 and a relative viability ([15]; first compound 2.53 µM) of 1.29. The relative viability ([16]; first compound 0.08 µM) was 0.979, the relative viability ([16]; first compound 0.253 µM) was 0.881 and the relative viability ([16]; first compound 0.8 µM) was 0.675. The relative viability ([16]; first compound 2.53 µM) was 0.881, the relative viability ([17]; first compound 0.08 µM) was 0.556 and the relative viability ([17]; first compound 0.253 µM) was 0.507. It also gave a relative viability ([17]; first compound 0.8 µM) of 0.439, a relative viability ([17]; first compound 2.53 µM) of 0.517 and a relative viability ([18]; first compound 0.08 µM) of 0.353. For the same compound, the relative viability ([18]; first compound 0.253 µM) was 0.302, the relative viability ([18]; first compound 0.8 µM) was 0.384 and the relative viability ([18]; first compound 2.53 µM) was 0.676. It also gave a relative viability ([19]; first compound 0.08 µM) of 1.09, a relative viability ([19]; first compound 0.253 µM) of 0.892 and a relative viability ([19]; first compound 0.8 µM) of 0.943. The relative viability ([19]; first compound 2.53 µM) was 1.11, the relative viability ([20]; first compound 0.08 µM) was 0.711 and the relative viability ([20]; first compound 0.253 µM) was 0.654. It also gave a relative viability ([20]; first compound 0.8 µM) of 0.733 and a relative viability ([20]; first compound 2.53 µM) of 0.861.
With `COc1nc(C)cnc1NS(=O)(=O)c1cccnc1-c1ccc(-c2nnco2)cc1` [Zibotentan] + Cc1nc(Nc2ncc(C(=O)Nc3c(C)cccc3Cl)s2)cc(N2CCN(CCO)CC2)n1 [Dasatinib] (partner 0.075 µM) the relative viability ([1]; first compound 0.08 µM) was 0.676, the relative viability ([1]; first compound 0.253 µM) was 0.569 and the relative viability ([1]; first compound 0.8 µM) was 0.576. It also gave a relative viability ([1]; first compound 2.53 µM) of 0.624, a relative viability ([2]; first compound 0.08 µM) of 0.289 and a relative viability ([2]; first compound 0.253 µM) of 0.32. The relative viability ([2]; first compound 0.8 µM) was 0.316, the relative viability ([2]; first compound 2.53 µM) was 0.353 and the relative viability ([21]; first compound 0.08 µM) was 0.32. The relative viability ([21]; first compound 0.253 µM) was 0.353, the relative viability ([21]; first compound 0.8 µM) was 0.381 and the relative viability ([21]; first compound 2.53 µM) was 0.405. For the same compound, the relative viability ([3]; first compound 0.08 µM) was 0.612, the relative viability ([3]; first compound 0.253 µM) was 0.529 and the relative viability ([3]; first compound 0.8 µM) was 0.392. The relative viability ([3]; first compound 2.53 µM) was 0.572, the relative viability ([4]; first compound 0.08 µM) was 0.375 and the relative viability ([4]; first compound 0.253 µM) was 0.287. It also gave a relative viability ([4]; first compound 0.8 µM) of 0.331, a relative viability ([4]; first compound 2.53 µM) of 0.33 and a relative viability ([5]; first compound 0.08 µM) of 0.406. The relative viability ([5]; first compound 0.253 µM) was 0.311, the relative viability ([5]; first compound 0.8 µM) was 0.632 and the relative viability ([5]; first compound 2.53 µM) was 0.325. The relative viability ([7]; first compound 0.08 µM) was 0.394, the relative viability ([7]; first compound 0.253 µM) was 0.267 and the relative viability ([7]; first compound 0.8 µM) was 0.247. For the same compound, the relative viability ([7]; first compound 2.53 µM) was 0.384, the relative viability ([8]; first compound 0.08 µM) was 0.823 and the relative viability ([8]; first compound 0.253 µM) was 0.841. It also gave a relative viability ([8]; first compound 0.8 µM) of 0.882, a relative viability ([8]; first compound 2.53 µM) of 0.861 and a relative viability ([9]; first compound 0.08 µM) of 0.577. For the same compound, the relative viability ([9]; first compound 0.253 µM) was 0.485, the relative viability ([9]; first compound 0.8 µM) was 0.539 and the relative viability ([9]; first compound 2.53 µM) was 0.577. The relative viability ([10]; first compound 0.08 µM) was 0.712, the relative viability ([10]; first compound 0.253 µM) was 0.694 and the relative viability ([10]; first compound 0.8 µM) was 0.596. For the same compound, the relative viability ([10]; first compound 2.53 µM) was 0.487, the relative viability ([11]; first compound 0.08 µM) was 0.408 and the relative viability ([11]; first compound 0.253 µM) was 0.292. For the same compound, the relative viability ([11]; first compound 0.8 µM) was 0.283, the relative viability ([11]; first compound 2.53 µM) was 0.428 and the relative viability ([12]; first compound 0.08 µM) was 0.883. The relative viability ([12]; first compound 0.253 µM) was 0.706, the relative viability ([12]; first compound 0.8 µM) was 0.821 and the relative viability ([12]; first compound 2.53 µM) was 0.907. For the same compound, the relative viability ([13]; first compound 0.08 µM) was 0.378, the relative viability ([13]; first compound 0.253 µM) was 0.341 and the relative viability ([13]; first compound 0.8 µM) was 0.307. For the same compound, the relative viability ([13]; first compound 2.53 µM) was 0.376, the relative viability ([14]; first compound 0.08 µM) was 0.24 and the relative viability ([14]; first compound 0.253 µM) was 0.227. It also gave a relative viability ([14]; first compound 0.8 µM) of 0.211, a relative viability ([14]; first compound 2.53 µM) of 0.213 and a relative viability ([15]; first compound 0.08 µM) of 0.851. It also gave a relative viability ([15]; first compound 0.253 µM) of 0.573, a relative viability ([15]; first compound 0.8 µM) of 0.923 and a relative viability ([15]; first compound 2.53 µM) of 0.814. For the same compound, the relative viability ([16]; first compound 0.08 µM) was 0.59, the relative viability ([16]; first compound 0.253 µM) was 0.612 and the relative viability ([16]; first compound 0.8 µM) was 0.52. It also gave a relative viability ([16]; first compound 2.53 µM) of 0.469, a relative viability ([17]; first compound 0.08 µM) of 0.354 and a relative viability ([17]; first compound 0.253 µM) of 0.308. For the same compound, the relative viability ([17]; first compound 0.8 µM) was 0.309, the relative viability ([17]; first compound 2.53 µM) was 0.314 and the relative viability ([18]; first compound 0.08 µM) was 0.145. For the same compound, the relative viability ([18]; first compound 0.253 µM) was 0.185, the relative viability ([18]; first compound 0.8 µM) was 0.215 and the relative viability ([18]; first compound 2.53 µM) was 0.195. The relative viability ([19]; first compound 0.08 µM) was 0.49, the relative viability ([19]; first compound 0.253 µM) was 0.418 and the relative viability ([19]; first compound 0.8 µM) was 0.46. It also gave a relative viability ([19]; first compound 2.53 µM) of 0.468, a relative viability ([20]; first compound 0.08 µM) of 0.989 and a relative viability ([20]; first compound 0.253 µM) of 1.02. For the same compound, the relative viability ([20]; first compound 0.8 µM) was 1.01, the relative viability ([20]; first compound 2.53 µM) was 1.12 and the relative viability ([22]; first compound 0.08 µM) was 0.565. The relative viability ([22]; first compound 0.8 µM) was 0.537 and the relative viability ([22]; first compound 2.53 µM) was 0.556.
